Where “and” joins values, the source holds several entries; their conditions need not be identical. Equal values may be shown once.
Columns and labels:
[1] = feeding test in weaned pigs, zinc source in food (growth, zinc retention, tissue minerals); type: in vivo; conditions: for Daily increase / Final living weight: about 27 days; for Final net weight: body weight without content of the digestive tube; for Diet: food intake, 50 ppm zinc from the source; for Daily net increase: net weight
Experimental: Two test groups of pigs (Control and Test) of 35 days of age and weaned at 19 days, were administered a food differing only in the zinc source. […] The two groups of animals were balanced by nest, living weight and sex and were fed for 27 days. Other 4 animals were immediately sacrificed and a sampling was made of them according to the following procedure. The two groups of animals were weighed before starting the test and after 27 days. At the end of the test the pigs were sacrificed and stomach, intestine, left kidney and liver were removed from every pig. Stomach and intestine were emptied and weighed again so as to obtain the net weight of said organs. A sample of kidney, liver and brain was taken and frozen. Stomach, intestine, left kidney and liver were then put together with the remaining carcass and homogenized with a mixer. A sample was then taken from the mass thus obtained and frozen. The samples were then dehydrated with a dehydrating device and underwent chemical analysis. The level of zinc, copper and iron were determined on the lyophilized samples by atomic absorption spectroscopy. The body levels of zinc were referred to the product. On the basis of the body's “net” weight (i.e. without the content of the digestive tube) and of its content of zinc at test beginning and end it was possible to determine also daily zinc retention.

[2] = feeding test in female Charolaise calves, zinc source in diet (zootechnical performance); type: in vivo
Experimental: Living weight at test beginning and end, dead weight and slaughtering yield were determined for each animal.

[3] = water solubility of the isolated iron (II) chelate; type: physicochemical; conditions: pale yellow powder
From the text: After filtration and washing the chelated product is then dried so as to reduce the amount of absorbed water.

[4] = pigs, 50 ppm zinc from the source in food
[5] = pigs, lyophilized samples, atomic absorption
[6] = single calves 1-6 of each group, Table 5, listed as TEST

O=S(=O)([O-])[O-].[Zn+2] [zinc sulfate, reference compound] gave a Daily increase [1, 4] of 321 g, a Final living weight [1, 4] of 16.20 kg and a Final net weight ([1]; pigs) of 15.76 kg. The Diet ([1]; pigs) was 548 g, the “Daily Zn retention” value ([1]; pigs, from net body weight and body zinc content at test beginning and end) was 5.27 mg and the “Brain Copper content” value [1, 5] was 23.3. For the same compound, the “Brain Iron content” value [1, 5] was 80.6, the “Brain Zinc content” value [1, 5] was 47.6 and the “Kidney Copper content” value [1, 5] was 40.2. The “Kidney Iron content” value [1, 5] was 179, the “Kidney Zinc content” value [1, 5] was 82.3 and the “Liver Copper content” value [1, 5] was 62.5 mg/kg. The “Liver Zinc content” value [1, 5] was 300 mg/kg and the Daily net increase ([1]; pigs) was 313 g.
With CSCCC(O)C(=O)[O-].CSCCC(O)C(=O)[O-].O.O.[Zn+2] (centres unmarked) [zinc chelate, (CH3SCH2CH2CH(OH)COO)2Zn.2H2O] the Final weight ([2]; calves, 90 days, 700 mg zinc daily, group value, Table 4, in kg) was 652, the carcass weight ([2]; calves, 90 days, P<0.01) was 377 kg and the Daily increase ([2]; calves, 90 days, group value, Table 4) was 1,039. For the same compound, the carcass weight ([2]; calves, 90 days, group value, Table 4, in kg) was 377, the Final weight ([2]; calves, 90 days, p<0.05) was 652 kg and the daily weight increase ([2]; calves, 90 days, p<0.05) was 1,039 g. For the same compound, the yield ([2]; calves, slaughtering yield, p<0.01) was 57.83%, the Dead weight [2, 6] was 421 kg and 457 kg and 398 kg and 378 kg and 320 kg and 318 kg and the Final weight [2, 6] was 724.61 kg and 789.29 kg and 686.21 kg and 653.98 kg and 557.49 kg and 548.28 kg. The Total increase [2, 6] was 99.0 kg and 112.5 kg and 103.5 kg and 90.00 kg and 81.00 kg and 80.10 kg, the “Brain Copper content” value ([1]; pig, in vivo) was 28.1 and the “Brain Iron content” value ([1]; pig, in vivo) was 100.9. The “Brain Zinc content” value ([1]; pig, in vivo) was 53.9, the “Daily Zn retention” value ([1]; pig, in vivo) was 5.40 mg and the “Kidney Copper content” value ([1]; pig, in vivo) was 55.0. For the same compound, the “Kidney Iron content” value ([1]; pig, in vivo) was 244, the “Kidney Zinc content” value ([1]; pig, in vivo) was 97.5 and the “Liver Copper content” value ([1]; pig, in vivo) was 63.6 mg/kg. The “Liver Iron content” value ([1]; pig, in vivo) was 240, the “Liver Zinc content” value ([1]; pig, in vivo) was 292 mg/kg and the Conversion index [1, 4] was 1.68. The Daily increase [1, 4] was 327 g, the Final living weight [1, 4] was 16.14 kg and the Final net weight ([1]; pigs) was 15.57 kg. For the same compound, the Diet ([1]; pigs) was 544 g and the Daily net increase ([1]; pigs) was 314 g.
With CSCCC(O)C(=O)[O-].CSCCC(O)C(=O)[O-].O.O.[Fe+2] (centres unmarked) [(CH3SCH2CH2CH(OH)COO)2Fe.2H2O] the water solubility [3] was “little water soluble”.
